The text below walks through data of ChEMBL document CHEMBL5528008, “Design and synthesis of the first PARP-1 and proteasome dual inhibitors to treat breast cancer” (Eur J Med Chem, 2024).

Test [1] addresses Poly [ADP-ribose] polymerase 1 (Homo sapiens, UniProt P09874). Nature of the test: Inhibition of PARP-1 (unknown origin) using Femto-ECL as substrate preincubated for 2.7 hrs followed by substrate addition by chemiluminescence assay.
Another test has as its target 20S proteasome. Nature of the test: Inhibition of 20S proteasome (unknown origin) using […] as substrate. The class given is protein-complex assay, Homo sapiens.
A further test deals with BT-549. Nature of the test: Cytotoxicity against human BT-549 cells assessed as inhibition of cell growth incubated for 72 hrs by MTT assay. The class given is functional, cell-based. As to conditions: BT-549, 72 h. On the technique in general: Tetrazolium dyes change colour on reduction, which living cells bring about.
In the next test the test system is MCF7. Nature of the test: Cytotoxicity against human MCF7 cells assessed as inhibition of cell growth incubated for 72 hrs by MTT assay. The class given is functional, cell-based. The settings on record: MCF7, 72 h.
The test system of another test is MDA-MB-231. Nature of the test: Cytotoxicity against human MDA-MB-231 cells assessed as inhibition of cell growth incubated for 72 hrs by MTT assay. In kind it is functional, cell-based. The settings on record: MDA-MB-231, 72 h.

Where only a bound is given, the exact number is not on record here.

Poly [ADP-ribose] polymerase 1, sequence (P09874 whole entry): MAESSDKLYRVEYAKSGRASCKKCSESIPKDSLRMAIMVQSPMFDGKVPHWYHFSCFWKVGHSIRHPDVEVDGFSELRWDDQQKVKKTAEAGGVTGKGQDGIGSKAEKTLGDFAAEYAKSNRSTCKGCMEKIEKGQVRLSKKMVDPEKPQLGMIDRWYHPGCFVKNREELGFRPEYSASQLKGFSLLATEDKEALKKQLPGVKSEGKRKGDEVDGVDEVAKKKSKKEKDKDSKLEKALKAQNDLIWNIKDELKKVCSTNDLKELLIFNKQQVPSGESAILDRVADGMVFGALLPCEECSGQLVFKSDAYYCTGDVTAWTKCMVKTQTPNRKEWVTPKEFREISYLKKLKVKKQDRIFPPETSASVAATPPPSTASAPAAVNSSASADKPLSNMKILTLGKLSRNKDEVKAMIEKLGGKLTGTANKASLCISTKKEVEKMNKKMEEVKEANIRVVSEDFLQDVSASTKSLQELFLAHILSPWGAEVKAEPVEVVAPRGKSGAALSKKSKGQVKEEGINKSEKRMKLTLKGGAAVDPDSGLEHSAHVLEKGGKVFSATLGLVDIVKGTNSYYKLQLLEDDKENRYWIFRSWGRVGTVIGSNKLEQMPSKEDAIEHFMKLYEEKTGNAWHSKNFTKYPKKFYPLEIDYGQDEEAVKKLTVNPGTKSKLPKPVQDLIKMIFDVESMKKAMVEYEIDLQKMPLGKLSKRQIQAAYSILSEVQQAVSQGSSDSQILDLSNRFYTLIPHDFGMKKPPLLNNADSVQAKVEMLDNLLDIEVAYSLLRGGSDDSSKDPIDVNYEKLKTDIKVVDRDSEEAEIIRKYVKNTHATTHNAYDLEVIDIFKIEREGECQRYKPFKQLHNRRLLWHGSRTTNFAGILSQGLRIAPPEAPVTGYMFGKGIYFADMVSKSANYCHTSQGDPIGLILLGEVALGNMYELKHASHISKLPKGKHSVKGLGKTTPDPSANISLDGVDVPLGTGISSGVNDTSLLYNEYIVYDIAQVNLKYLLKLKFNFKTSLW

For the compound `Cc1c(Cc2ccc(F)c(C(=O)NCC(=O)N[C@@H](CC(C)C)B3O[C@@H]4C[C@@H]5C[C@@H](C5(C)C)[C@]4(C)O3)c2)n[nH]c(=O)c1C`, the values for the half-maximal inhibitory concentration (IC50) (in test [1]; against 20S proteasome) were 173 nM and 39.5 nM, respectively.

Take `CC(C)C[C@H](NC(=O)[C@H](Cc1ccccc1)NC(=O)c1cc(COc2ccccc2C(N)=O)ccc1F)B1O[C@@H]2C[C@@H]3C[C@@H](C3(C)C)[C@]2(C)O1`: the IC50 (usually the concentration that inhibits the measured activity by half) in test [1] was over 1000 nM.

For the compound `CC(C)C[C@H](NC(=O)[C@@H](NC(=O)c1cc(Cc2n[nH]c(=O)c3ccccc23)ccc1F)C(C)(C)C)B1O[C@@H]2C[C@@H]3C[C@@H](C3(C)C)[C@]2(C)O1`, the concentration for half-maximal inhibition (IC50) is 171 nM in test [1]; 65.6 nM at 20S proteasome; 12.3 nM with BT-549; 130 nM in the test on MCF7; 28.1 nM in the test with MDA-MB-231.

On to `CC(C)C[C@H](NC(=O)[C@H](CCc1ccccc1)NC(=O)c1cc(Cc2n[nH]c(=O)c3ccccc23)ccc1F)B1O[C@@H]2C[C@@H]3C[C@@H](C3(C)C)[C@]2(C)O1`, for which the IC50 is 100 nM in test [1]; 34.5 nM against 20S proteasome; 294 nM with BT-549; 14.6 nM in the test on MCF7; 29.5 nM in the test on MDA-MB-231.

As to `CC(C)C[C@H](NC(=O)[C@H](Cc1ccccc1)NC(=O)c1cc(Cc2n[nH]c(=O)c3ccccc23)ccc1F)B1O[C@@H]2C[C@@H]3C[C@@H](C3(C)C)[C@]2(C)O1`, the IC50 in test [1] worked out at 98 nM; on 20S proteasome, 24.7 nM; in the test with BT-549, 84.9 nM; in the test on MCF7 it was 58.6 nM; in the test with MDA-MB-231 it was 63.6 nM.

`CC(C)C[C@H](NC(=O)[C@H](Cc1ccc(O)cc1)NC(=O)c1cc(Cc2n[nH]c(=O)c3ccccc23)ccc1F)B1O[C@@H]2C[C@@H]3C[C@@H](C3(C)C)[C@]2(C)O1`: the IC50 came out at 116 nM in test [1]; 47.6 nM at 20S proteasome; 348 nM in the test with BT-549; 980 nM in the test with MCF7; 328 nM in the test on MDA-MB-231.

`CC(C)C[C@H](NC(=O)[C@@H](NC(=O)c1cc(Cc2n[nH]c(=O)c3ccccc23)ccc1F)C(C)C)B1O[C@@H]2C[C@@H]3C[C@@H](C3(C)C)[C@]2(C)O1`: the IC50 in test [1] was found to be 151 nM; on 20S proteasome, 98.3 nM; in the test on BT-549 it was 13.3 nM; in the test on MCF7 it was 174 nM; in the test with MDA-MB-231, 20.8 nM.

As to `CC(C)C[C@H](NC(=O)[C@H](Cc1ccccc1)NC(=O)c1cc(Cc2n[nH]c(=O)c3ccccc23)ccc1F)B(O)O`, the IC50 in test [1] came to 291 nM; at 20S proteasome it was 87.8 nM.

Consider `CC(C)C[C@H](NC(=O)CNC(=O)c1cc(Cc2n[nH]c(=O)c3ccccc23)ccc1F)B1O[C@@H]2C[C@@H]3C[C@@H](C3(C)C)[C@]2(C)O1`, for which the IC50 in test [1] is 2.1 nM; at 20S proteasome, 157 nM; in the test on BT-549 it was 97.7 nM; in the test on MCF7, 355 nM; in the test with MDA-MB-231 it was 249 nM.

Regarding `Cc1c(Cc2ccc(F)c(C(=O)N[C@@H](Cc3ccccc3)C(=O)N[C@@H](CC(C)C)B3O[C@@H]4C[C@@H]5C[C@@H](C5(C)C)[C@]4(C)O3)c2)n[nH]c(=O)c1C`, the IC50 in test [1] was over 1000 nM.

`CC(C)C[C@H](NC(=O)[C@H](C)NC(=O)c1cc(Cc2n[nH]c(=O)c3ccccc23)ccc1F)B1O[C@@H]2C[C@@H]3C[C@@H](C3(C)C)[C@]2(C)O1`: the IC50 in test [1] stood at 118 nM; at 20S proteasome it was 132 nM; in the test on BT-549 it was 41 nM; with MCF7, 20.8 nM; in the test on MDA-MB-231, 37 nM.

For the compound `CC(C)C[C@H](NC(=O)CNC(=O)c1cc(Cc2n[nH]c(=O)c3ccccc23)ccc1F)B(O)O`, the results for the IC50 (in test [1]; against 20S proteasome) were 4.1 nM and 386 nM, respectively.

In the case of `CC(C)C[C@H](NC(=O)CNC(=O)c1cc(Cc2ccc(=O)[nH]n2)ccc1F)B1O[C@@H]2C[C@@H]3C[C@@H](C3(C)C)[C@]2(C)O1`, the IC50 in test [1] was over 1000 nM; on 20S proteasome it was 2150 nM.

Take `CC(C)C[C@H](NC(=O)[C@H](Cc1ccccc1)NC(=O)c1cc(Cc2n[nH]c(=O)c3ccccc23)ccc1F)C(=O)[C@@]1(C)CO1`: on 20S proteasome, the IC50 was determined as 1420 nM.

For `CCC[C@H](NC(=O)c1cc(Cc2n[nH]c(=O)c3ccccc23)ccc1F)C(=O)N[C@@H](CC(C)C)B1O[C@@H]2C[C@@H]3C[C@@H](C3(C)C)[C@]2(C)O1`, the half-maximal inhibitory concentration (IC50) came to 203 nM in test [1]; 103 nM against 20S proteasome; 605 nM with BT-549; 87.9 nM in the test with MCF7; 338 nM in the test on MDA-MB-231.

On to `CC(C)C[C@H](NC(=O)[C@@H](NC(=O)c1cc(Cc2n[nH]c(=O)c3ccccc23)ccc1F)[C@H](C)O)B1O[C@@H]2C[C@@H]3C[C@@H](C3(C)C)[C@]2(C)O1`, for which the IC50 in test [1] was 273 nM; against 20S proteasome, 13.8 nM; in the test on BT-549, 179 nM; in the test with MCF7 it was 493 nM; in the test on MDA-MB-231, 178 nM.

As to `CC(C)C[C@H](NC(=O)[C@H](Cc1c[nH]c2ccccc12)NC(=O)c1cc(Cc2n[nH]c(=O)c3ccccc23)ccc1F)B1O[C@@H]2C[C@@H]3C[C@@H](C3(C)C)[C@]2(C)O1`, the IC50 in test [1] worked out at 28 nM; against 20S proteasome, 42.6 nM; with BT-549 it was 216 nM; with MCF7, 45.1 nM; in the test on MDA-MB-231, 297 nM.

Regarding `COC[C@H](NC(=O)c1cc(Cc2n[nH]c(=O)c3ccccc23)ccc1F)C(=O)N[C@@H](CC(C)C)B1O[C@@H]2C[C@@H]3C[C@@H](C3(C)C)[C@]2(C)O1`, the IC50 was 247 nM in test [1]; 21.4 nM on 20S proteasome; 109 nM with BT-549; 40.8 nM with MCF7; 101 nM with MDA-MB-231.

For the compound `CC(C)C[C@H](NC(=O)[C@H](Cc1c[nH]c2ccccc12)NC(=O)c1cc(Cc2n[nH]c(=O)c3ccccc23)ccc1F)B(O)O`, the values for the IC50 (in test [1]; against 20S proteasome) were 98 nM and 56.1 nM, respectively.

In the case of `COC[C@H](NC(=O)c1cc(Cc2n[nH]c(=O)c(C)c2C)ccc1F)C(=O)N[C@@H](CC(C)C)B1O[C@@H]2C[C@@H]3C[C@@H](C3(C)C)[C@]2(C)O1`, the IC50 in test [1] is over 1000 nM.

`CC(C)C[C@H](NC(=O)CNC(=O)c1cc(Cc2n[nH]c(=O)c3ccccc23)ccc1F)C(=O)[C@@]1(C)CO1` had an IC50 at 20S proteasome of over 10000 nM.

Regarding `CC(C)C[C@H](NC(=O)[C@H](Cc1c[nH]c2ccccc12)NC(=O)c1cc(Cc2n[nH]c(=O)c3ccccc23)ccc1F)C(=O)[C@@]1(C)CO1`, at 20S proteasome, the IC50 was 1060 nM.
